Tested on: transfected CHO cells expressing recombinant human monoclonal antibody (cell line 1)
Assay: 24-deep well culture, cell line 1: VCD, viability, titer, qP
Type: cell-based, Chinese hamster
Details: for Titer / VCD / Viability / qP: Cell Line 1
Protocol: Transfected CHO cells expressing a recombinant human monoclonal antibody (mAb) are cultured in 24-deep well plates with seeding density at 1×10^7/mL for five days. At certain time periods, samples of the cultures are taken and evaluated for viable cell density (VCD; expressed in 10^6 cells/mL); percent viability (as determined by trypan blue exclusion); titer of recombinant protein (expressed in grams of protein per liter of culture, or g/L, as determined by Protein A affinity HPLC); qP, or specific productivity (expressed in picograms of recombinant protein per cell per day, or pg/c/d), the presence or absence of high molecular weight substances (usually an indicator of protein aggregation; expressed as % of the total protein); and the relative percentage of Mannose 5, a major intermediate glyco-form that attaches to N297 of the mAb. N-linked glycosylation has an impact on the tertiary structure of the antibody and may affect Fc mediated antibody effector functions. The majority of the human Fc glycans are complex biantennary structures with galactose as the prevalent terminal sugar. Immature glyco-forms, such as high-mannose glycol-forms (Man5-9), are of concern due to potential higher plasma clearance rate (as compared to the clearance rate of complex glycan linked mAbs).
Compounds are further evaluated essentially as described in Example 2 herein. Briefly, transfected CHO cells expressing recombinant human monoclonal antibody (mAb; two different cell lines expressing two different mAb, referred to as cell line 1 and cell line 2) are cultured in 24-deep well plates in the presence or absence of the compounds. At specified time points, samples of the cultures are taken and evaluated for viable cell density (VCD; expressed in 10^6 cells/mL); percent viability (as determined by any method known in the art); titer of recombinant protein (expressed in grams of protein per liter of culture, or g/L, as determined by Protein A affinity HPLC); qP, or specific productivity (expressed in picograms of recombinant protein per cell per day, or pg/c/d). Additional parameters measure include the presence or absence of high molecular weight substances (usually an indicator of protein aggregation; expressed as % of the total protein); and the relative percentage of Mannose 5. For comparison purposes, Compounds A and B, which had been previously tested, were tested again.

## OC1CCN(c2ccc(Nc3ncc4c5ccncc5n(C5CCCC5)c4n3)nn2)C1 (stereo not drawn) [Compound G, 1-(6-((9-cyclopentyl-9H-pyrido[4′,3′:4,5]pyrrolo[2,3-d]pyrimidin-2-yl)amino)pyridazin-3-yl)pyrrolidin-3-ol]
5 microM, D 1
  Titer: 0.48 g/L
  VCD: 11.74 e6/mL
  Viability: 95.55%
  qP: 40.59 pg/c/d
5 microM, D 2
  Titer: 0.66 g/L
  VCD: 10.58 e6/mL
  Viability: 88.10%
  qP: 62.69 pg/c/d
5 microM, D 3
  Titer: 0.96 g/L
  VCD: 11.02 e6/mL
  Viability: 83.82%
  qP: 86.81 pg/c/d
5 microM, D 4
  Titer: 0.98 g/L
  VCD: 13.45 e6/mL
  Viability: 82.62%
  qP: 72.60 pg/c/d
10 microM, D 1
  Titer: 0.47 g/L
  VCD: 11.65 e6/mL
  Viability: 95.31%
  qP: 40.64 pg/c/d
10 microM, D 2
  Titer: 0.80 g/L
  VCD: 9.95 e6/mL
  Viability: 85.90%
  qP: 80.10 pg/c/d
10 microM, D 3
  Titer: 0.94 g/L
  VCD: 10.48 e6/mL
  Viability: 81.90%
  qP: 89.39 pg/c/d
10 microM, D 4
  Titer: 1.08 g/L
  VCD: 13.58 e6/mL
  Viability: 79.61%
  qP: 79.79 pg/c/d
Summary of Table 2
  effect on viability: minimal effects on viability
  growth arrest: reasonably sustained growth arrest

## CN(C)C1CCN(c2ccc(Nc3ncc4c(n3)C3(C=CC(C)(C)CC3)c3cnccc3-4)nn2)CC1 (stereo not drawn) [Compound H, N-(6-(4-(dimethylamino)piperidin-1-yl)pyridazin-3-yl)-4,4-dimethylspiro[cyclohex[2]ene-1,9′-pyrido[4′,3′:3,4]cyclopenta[1,2-d]pyrimidin]-2′-amine]
10 microM, D 1
  Titer: 0.47 g/L
  VCD: 11.48 e6/mL
  Viability: 95.80%
  qP: 41.24 pg/c/d
10 microM, D 2
  Titer: 0.69 g/L
  VCD: 12.58 e6/mL
  Viability: 89.83%
  qP: 55.12 pg/c/d
10 microM, D 3
  Titer: 0.94 g/L
  VCD: 13.36 e6/mL
  Viability: 87.77%
  qP: 70.60 pg/c/d
10 microM, D 4
  Titer: 0.92 g/L
  VCD: 16.49 e6/mL
  Viability: 86.93%
  qP: 56.01 pg/c/d
20 microM, D 1
  Titer: 0.47 g/L
  VCD: 10.69 e6/mL
  Viability: 95.60%
  qP: 44.27 pg/c/d
20 microM, D 2
  Titer: 0.68 g/L
  VCD: 11.08 e6/mL
  Viability: 87.70%
  qP: 61.66 pg/c/d
20 microM, D 3
  Titer: 0.92 g/L
  VCD: 10.91 e6/mL
  Viability: 82.95%
  qP: 83.98 pg/c/d
20 microM, D 4
  Titer: 0.97 g/L
  VCD: 12.99 e6/mL
  Viability: 81.36%
  qP: 74.65 pg/c/d

## Fc1ccc(-n2c3cnccc3c3cnc(Nc4ccc(N5CCNCC5)cn4)nc32)c(F)c1 [Compound I, 9-(2,4-difluorophenyl)-N-(5-(piperazin-1-yl)pyridin-2-yl)-9H-pyrido[4′,3′:4,5]pyrrolo[2,3-d]pyrimidin-2-amine]
0.625 microM, D 1
  Titer: 0.46 g/L
  VCD: 11.17 e6/mL
  Viability: 95.26%
  qP: 41.50 pg/c/d
0.625 microM, D 2
  Titer: 0.66 g/L
  VCD: 11.98 e6/mL
  Viability: 89.90%
  qP: 55.10 pg/c/d
0.625 microM, D 3
  Titer: 0.89 g/L
  VCD: 12.81 e6/mL
  Viability: 85.53%
  qP: 69.73 pg/c/d
0.625 microM, D 4
  Titer: 1.07 g/L
  VCD: 16.91 e6/mL
  Viability: 85.47%
  qP: 63.09 pg/c/d
1.25 microM, D 1
  Titer: 0.46 g/L
  VCD: 10.89 e6/mL
  Viability: 94.78%
  qP: 42.55 pg/c/d
1.25 microM, D 2
  Titer: 0.66 g/L
  VCD: 11.16 e6/mL
  Viability: 88.73%
  qP: 58.82 pg/c/d
1.25 microM, D 3
  Titer: 0.89 g/L
  VCD: 12.25 e6/mL
  Viability: 85.80%
  qP: 72.68 pg/c/d
1.25 microM, D 4
  Titer: 1.06 g/L
  VCD: 15.33 e6/mL
  Viability: 84.19%
  qP: 69.35 pg/c/d

## CC1(C)CN(c2ccc(Nc3ncc4c5ccncc5n(-c5ccc(F)cc5F)c4n3)nc2)CCN1 [Compound J, 9-(2,4-difluorophenyl)-N-(5-(3,3-dimethylpiperazin-1-yl)pyridin-2-yl)-9H-pyrido[4′,3′:4,5]pyrrolo[2,3-d]pyrimidin-2-amine]
0.625 microM, D 1
  Titer: 0.45 g/L
  VCD: 11.40 e6/mL
  Viability: 94.94%
  qP: 39.77 pg/c/d
0.625 microM, D 2
  Titer: 0.68 g/L
  VCD: 14.02 e6/mL
  Viability: 91.87%
  qP: 48.50 pg/c/d
0.625 microM, D 3
  Titer: 0.88 g/L
  VCD: 16.48 e6/mL
  Viability: 90.31%
  qP: 53.61 pg/c/d
0.625 microM, D 4
  Titer: 0.99 g/L
  VCD: 19.37 e6/mL
  Viability: 89.98%
  qP: 51.10 pg/c/d
1.25 microM, D 1
  Titer: 0.44 g/L
  VCD: 11.54 e6/mL
  Viability: 94.24%
  qP: 38.41 pg/c/d
1.25 microM, D 2
  Titer: 0.64 g/L
  VCD: 11.25 e6/mL
  Viability: 87.53%
  qP: 57.19 pg/c/d
1.25 microM, D 3
  Titer: 0.86 g/L
  VCD: 14.06 e6/mL
  Viability: 84.29%
  qP: 61.40 pg/c/d
1.25 microM, D 4
  Titer: 1.08 g/L
  VCD: 17.54 e6/mL
  Viability: 84.81%
  qP: 61.77 pg/c/d

## CC1(C)C=CC2(CC1)c1cnccc1-c1cnc(Nc3ccc(N4CCNCC4)nn3)nc12 (stereo not drawn) [Compound K, 4,4-dimethyl-N-(6-(piperazin-1-yl)pyridazin-3-yl)spiro[cyclohex[2]ene-1,9′-pyrido[4′,3′:3,4]cyclopenta[1,2-d]pyrimidin]-2′-amine]
1.25 microM, D 1
  Titer: 0.48 g/L
  VCD: 11.87 e6/mL
  Viability: 95.72%
  qP: 40.15 pg/c/d
1.25 microM, D 2
  Titer: 0.72 g/L
  VCD: 13.04 e6/mL
  Viability: 92.13%
  qP: 54.94 pg/c/d
1.25 microM, D 3
  Titer: 1.01 g/L
  VCD: 16.39 e6/mL
  Viability: 90.36%
  qP: 61.61 pg/c/d
1.25 microM, D 4
  Titer: 1.07 g/L
  VCD: 22.55 e6/mL
  Viability: 91.21%
  qP: 47.60 pg/c/d
2.5 microM, D 1
  Titer: 0.48 g/L
  VCD: 11.77 e6/mL
  Viability: 96.38%
  qP: 40.78 pg/c/d
2.5 microM, D 2
  Titer: 0.72 g/L
  VCD: 12.07 e6/mL
  Viability: 90.97%
  qP: 59.38 pg/c/d
2.5 microM, D 3
  Titer: 1.05 g/L
  VCD: 15.31 e6/mL
  Viability: 89.25%
  qP: 68.37 pg/c/d
2.5 microM, D 4
  Titer: 1.22 g/L
  VCD: 21.06 e6/mL
  Viability: 89.80%
  qP: 58.10 pg/c/d

Source: US20180087079A1, “METHODS OF USING CELL-CYCLE INHIBITORS TO MODULATE ONE OR MORE PROPERTIES OF A CELL CULTURE” (AMGEN INC., priority 2013, published 2018)
